Test results taken from patent US20050227220A1, “Compositions and Methods for Evaluating and Designing Nuclear Receptor Ligands that Modulate Co-Regulator Affinity” (priority 2002, published 2005).

How the values were obtained:
PPARα LBD = target: T1, PPARα LBD (Homo sapiens, UniProt Q07869); experiment: FRET assay: ligand effect on CBP fragment / NCoR ID-C binding to PPAR LBD; type: biochemical; conditions: 10 nM PPAR LBD; for effect on apparent affinity of PPARα for the co-activator fragment from CBP: CBP (57-454)
T1 construct: made in house; host or cells: bacterial BL21-DE3, vector pRSETA
T1 sequence (Q07869 192-468): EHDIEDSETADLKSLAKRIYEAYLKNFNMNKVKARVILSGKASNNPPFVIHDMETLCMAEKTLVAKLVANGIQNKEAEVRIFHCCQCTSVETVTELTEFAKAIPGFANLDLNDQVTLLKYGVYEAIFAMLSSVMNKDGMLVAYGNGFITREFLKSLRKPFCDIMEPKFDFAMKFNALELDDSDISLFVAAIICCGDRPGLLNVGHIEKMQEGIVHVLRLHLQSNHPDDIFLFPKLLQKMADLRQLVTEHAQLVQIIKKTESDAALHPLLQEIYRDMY
Source text: (§1) The experimentally determined α value is the ratio of cofactor affinities in the presence and absence of a saturating concentration of ligand. This analysis permits a direct comparison of the effects of compounds, independent of cofactor concentration and differences in coregulator affinity for the individual receptors. […] 98(9): p.
(§2) The effects of the coregulator environment on the apparent affinities and selectivities of various ligands were than examined. Experimentally determined pKs and the α values derived from the FRET assay were used to calculate the apparent affinity of the ligand for the receptor/cofactor complex (i.e. K/α).
(§3) FIG. 5 illustrates the effect of ligands on coactivator and corepressor binding to PPAR subtypes determined by FRET.

PPARδ LBD = target: T2, PPARδ LBD (Homo sapiens, UniProt Q03181); experiment: as above; type: biochemical; conditions: 10 nM PPAR LBD, CBP (57-454)
T2 construct: made in house; host or cells: bacterial BL21-DE3, vector pRSETA
T2 sequence (Q03181 139-441): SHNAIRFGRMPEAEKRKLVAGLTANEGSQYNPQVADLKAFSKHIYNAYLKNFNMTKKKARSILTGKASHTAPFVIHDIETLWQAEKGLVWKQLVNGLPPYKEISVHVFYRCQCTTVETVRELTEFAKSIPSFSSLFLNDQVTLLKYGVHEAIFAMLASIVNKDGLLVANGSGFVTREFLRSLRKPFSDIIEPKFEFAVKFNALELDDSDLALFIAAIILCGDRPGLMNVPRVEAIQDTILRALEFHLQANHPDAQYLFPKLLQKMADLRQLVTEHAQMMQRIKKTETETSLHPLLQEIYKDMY
Source text: as §1, §2, §3

PPARδ LBD / RXRα LBD = target: T3, PPARδ LBD / RXRα LBD (Homo sapiens, UniProt Q03181); experiment: FRET assay: ligand effect on RXRα LBD binding to PPAR LBD; conditions: 10 nM PPAR LBD, 4 concentrations of RXR
T3 sequence (Q03181 139-441): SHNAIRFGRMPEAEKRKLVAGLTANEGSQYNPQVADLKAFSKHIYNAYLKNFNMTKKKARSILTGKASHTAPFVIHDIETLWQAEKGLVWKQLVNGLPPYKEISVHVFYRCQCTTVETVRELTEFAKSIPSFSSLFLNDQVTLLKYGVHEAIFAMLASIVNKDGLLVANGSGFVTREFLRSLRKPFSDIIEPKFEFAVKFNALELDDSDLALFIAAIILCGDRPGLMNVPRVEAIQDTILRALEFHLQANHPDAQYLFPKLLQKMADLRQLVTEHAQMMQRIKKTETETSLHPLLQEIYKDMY
T3 sequence (P19793 225-462 partner limits assumed): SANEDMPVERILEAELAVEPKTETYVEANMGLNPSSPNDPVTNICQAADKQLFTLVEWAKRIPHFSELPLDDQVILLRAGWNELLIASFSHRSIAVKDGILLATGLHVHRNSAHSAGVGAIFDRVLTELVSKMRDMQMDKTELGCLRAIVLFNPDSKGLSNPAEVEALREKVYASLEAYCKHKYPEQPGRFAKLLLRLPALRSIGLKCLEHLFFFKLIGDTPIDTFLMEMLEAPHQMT

full length human PPARα = target: T4, full length human PPARα (Homo sapiens, UniProt Q07869); experiment: Mammalian two-hybrid assay (CV-1 cells); type: cell-based; conditions: VP16-PPARα, GAL4-NCoR (2239-2300), result in words
T4 construct: expressed in transfected cells; host or cells: CV-1 cells, vector pVP16 (Clonetech)
T4 sequence (Q07869 1-468): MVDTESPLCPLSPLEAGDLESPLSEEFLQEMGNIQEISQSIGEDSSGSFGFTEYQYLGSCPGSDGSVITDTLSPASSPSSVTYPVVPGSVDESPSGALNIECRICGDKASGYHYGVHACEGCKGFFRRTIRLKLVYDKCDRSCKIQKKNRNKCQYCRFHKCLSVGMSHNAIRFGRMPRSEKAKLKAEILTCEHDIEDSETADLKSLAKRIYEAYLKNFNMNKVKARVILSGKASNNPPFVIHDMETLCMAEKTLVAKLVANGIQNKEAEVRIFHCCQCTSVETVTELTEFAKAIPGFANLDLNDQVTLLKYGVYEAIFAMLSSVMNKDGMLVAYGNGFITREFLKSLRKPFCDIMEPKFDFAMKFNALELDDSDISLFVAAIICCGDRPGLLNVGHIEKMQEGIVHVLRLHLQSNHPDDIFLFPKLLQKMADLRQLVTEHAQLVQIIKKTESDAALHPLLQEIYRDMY
Source text: Mammalian two-hybrid assays were used to examine the ability of the tyrosine-based class of PPAR ligands to promote association or dissociation of the co-activator CBP and the corepressor NCoR in the context of a cellular environment. The assays for the three PPAR subtypes used full length human PPARα, PPARγ2 or PPARδ fused to the activation domain of VP16 and previously identified interaction domains of CBP and NCoR fused to the DNA binding domain of GAL4.
Expression plasmids for the VP16-human PPAR constructs were prepared by inserting amplified cDNAs encoding full length PPARα, PPARγ2 and PPARδ fused to amino acids 410-490 of the VP16 viral activation domain, into the expression vector pVP16 (Clonetech). […] The reporter plasmid was (UAS)5-tk-SPAP, and the internal control plasmid for all transfections was β-galactosidase expression vector (pCH110, Amersham).
CV-1 cells were maintained in culture in DME high glucose medium supplemented with 10% FBS and 2 mM glutamine in a humidified incubator (5% CO2 in air) at 37° C. Cells were harvested 72 hours prior to experimental use and placed in phenol red free D-MEM/F-12 medium with 15 mM HEPES supplemented with 10% charcoal/dextran-treated FBS (HyClone, Logan, Utah). The cells were harvested and seeded at 2.0×10^4 cell per well in a 96-well plate the day prior to transfection. Cells were transfected for 16 hr using Lipofectamine (Life Technologies, Inc., Rockville, Md.) essentially according to the manufacturer's instructions. The total amount of DNA transfected into each well was 80 ng. Transfection mixtures contained 8 ng VP16-PPAR plasmid, 8 ng SPAP reporter, 25 ng of pCH110(β-galactosidase) control plasmid, 35 ng of pBluescript II KS+ (Clonetech) and 4 ng of either coactivator or corepressor plasmid. Transfection quantities for full length PPAR and cofactor plasmids were optimized to generate a signal that was half of the maximal activation. These conditions would allow for dissociation or association to be experimentally determined for each ligand evaluated. Stock solutions of drugs were prepated in DMSO and dilutions were made in phenol red-free D-MEM/F-12 with 15 mM HEPES supplemented with 10% charcoal stripped, delipidated, heat inactivated (62° C. for 35 min) bovine calf serum (Sigma, St. Louis, Mo.) such that the final concentration of DMSO was 0.1%. Transfection mixtures were aspirated and 100 μl, of medium containing drug was added to each well.

GAL4-CBP (1-115) = GAL4-CBP (1-115) (UniProt P04386 1-147; P45481 1-115); experiment: cell-based or functional assay

Cc1oc(-c2ccccc2)nc1CCOc1ccc(C[C@H](Nc2ccccc2C(=O)c2ccccc2)C(=O)O)cc1 [GW2570, farglitazar]
effect on apparent affinity of PPARα for the co-activator fragment from CBP (PPARα LBD): increased the apparent affinity
effect on apparent affinity of PPARδ for the co-activator fragment from CBP (PPARδ LBD): increased the apparent affinity
promotion of association of PPARδ with RXR (PPARδ LBD / RXRα LBD): most effective

C/C(=C/C(=O)c1ccccc1)N[C@@H](Cc1ccc(OCCc2nc(-c3ccccc3)oc2C)cc1)C(=O)O [GW9544]
effect on apparent affinity of PPARα for the co-activator fragment from CBP (PPARα LBD): increased the apparent affinity

Cc1cc(SCc2sc(-c3ccc(C(F)(F)F)cc3)nc2C)ccc1OCC(=O)O [GW1516]
effect on apparent affinity of PPARα for the co-activator fragment from CBP (PPARα LBD): increased the apparent affinity
effect on affinity of PPARα for the co-repressor peptide (PPARα LBD; NCoR ID-C): decreased the affinity

CCC(=O)NC[C@H](Cc1ccc(OCCc2nc(-c3ccccc3)oc2C)cc1)N/C(C)=C\C(=O)c1ccc(C(F)(F)F)cc1 [GW6471]
effect on PPARα interaction with NCoR (full length human PPARα): modulation of co-repressor interaction was seen

B1: VP16-human PPARδ (full length) (other)
chain: LSTAPPTDVSLGDELHLDGEDVAMAHADALDDFDLDMLGDGDSPGPGFTPHDSAPYGALDMADFEFEQMFTDALGIDEYGGMEQPQEEAPEVREEEEKEEVAEAEGAPELNGGPQHALPSSSYTDLSRSSSPPSLLDQLQMGCDGASCGSLNMECRVCGDKASGFHYGVHACEGCKGFFRRTIRMKLEYEKCERSCKIQKKNRNKCQYCRFQKCLALGMSHNAIRFGRMPEAEKRKLVAGLTANEGSQYNPQVADLKAFSKHIYNAYLKNFNMTKKKARSILTGKASHTAPFVIHDIETLWQAEKGLVWKQLVNGLPPYKEISVHVFYRCQCTTVETVRELTEFAKSIPSFSSLFLNDQVTLLKYGVHEAIFAMLASIVNKDGLLVANGSGFVTREFLRSLRKPFSDIIEPKFEFAVKFNALELDDSDLALFIAAIILCGDRPGLMNVPRVEAIQDTILRALEFHLQANHPDAQYLFPKLLQKMADLRQLVTEHAQMMQRIKKTETETSLHPLLQEIYKDMY
mammalian two-hybrid reporter, fold association with GW1929 and GW7845 (GAL4-CBP (1-115)): ~2 fold
